From ChEMBL document CHEMBL1153985, “In vitro and in vivo SAR of pyrido[3,4-d]pyramid-4-ylamine based mGluR1 antagonists” (Bioorg Med Chem Lett, 2009)
Activity calls are given as the source filed them.

Columns and labels:
[1] = molecular target: Metabotropic glutamate receptor 1 (Rattus norvegicus, UniProt P23385); test: Antagonist activity at rat mGluR1a expressed in CHO cells assessed as inhibition of glutamate-evoked increase in calcium […] preincubated 5 mins before glutamate challenge; type: functional, cell-based
[2] = Ratio of free drug level in cerebrospinal fluid to steady state unbound plasma in iv dosed rat; type: ADME, organism-based
[3] = test system: Rattus norvegicus; test: Antinociceptive activity in anaesthetized rat assessed as inhibition of low threshold tactile stimulus-induced electromyograph response at 22 mg/kg, iv administered as bolus dose for 30 seconds and 9.6 mg/kg/hr, iv administered via infusion measured after 1 hr; type: functional, organism-based
[4] = Clearance in rat at 1 mg/kg; type: ADME, organism-based; parameters: dose 1 mg/kg; conditions: in vivo
[5] = test system: Liver microsomes; test: Metabolic stability in human liver microsomes assessed as intrinsic clearance; type: ADME, Microsome
[6] = molecular target: Metabotropic glutamate receptor 5 (Homo sapiens, UniProt P41594); test: Antagonist activity at mGluR5; type: functional
[7] = test system: Liver microsomes; test: Metabolic stability in rat liver microsomes assessed as intrinsic clearance; type: ADME, Microsome
[8] = Half life in rat at 1 mg/kg; type: ADME, organism-based; parameters: dose 1 mg/kg; conditions: in vivo
[9] = test system: Rattus norvegicus; test: Antinociceptive activity in anaesthetized rat assessed as maximal inhibition of noxious pinch-induced electromyograph response at 10 fold free Ki concentration in cerebrospinal fluid measured after 1 hr; type: functional, organism-based
[10] = Solubility of the compound; type: physicochemical
[11] = test system: Rattus norvegicus; test: Free plasma concentration in anaesthetized electromyograph pinch rat model at 22 mg/kg, iv administered as bolus dose for 30 seconds and 9.6 mg/kg/hr, iv administered via infusion; type: ADME, organism-based; conditions: in vivo
[12] = test system: Rattus norvegicus; test: Toxicity in anaesthetized electromyograph pinch rat model assessed as effect on sensory input to spinal cord at 22 mg/kg, iv administered as bolus dose for 30 seconds and 9.6 mg/kg/hr, iv administered via infusion; type: organism-based; conditions: in vivo
[13] = Protein binding in rat plasma at 1 mg/kg; type: ADME, organism-based; parameters: dose 1 mg/kg; conditions: read-out: PPB (converted)
[14] = molecular target: Metabotropic glutamate receptor 1 (Homo sapiens, UniProt Q13255); test: Antagonist activity at mGluR1; type: functional
[15] = test system: Rattus norvegicus; test: Antinociceptive activity in anaesthetized rat assessed as inhibition of noxious pinch-induced electromyograph response at 22 mg/kg, iv administered as bolus dose for 30 seconds and 9.6 mg/kg/hr, iv administered via infusion measured after 1 hr; type: functional, organism-based
[16] = Oral bioavailability in rat at 1 mg/kg; type: ADME, organism-based; conditions: in vivo
[17] = Lipophilicity, log D of the compound; type: physicochemical; conditions: octanol/water
[18] = Volume of distribution in rat at 1 mg/kg; type: ADME, organism-based; parameters: dose 1 mg/kg; conditions: in vivo
[19] = test system: Rattus norvegicus; test: Analgesic activity in awake rat at 0.3 mg/kg, iv administered as bolus dose for 30 seconds and 0.3 mg/kg/hr, iv administered via infusion measured after 1 hr; type: functional, organism-based
[20] = test system: Rattus norvegicus; test: Antinociceptive activity in anaesthetized rat assessed as inhibition of noxious pinch-induced electromyograph response at 0.3 mg/kg, iv administered as bolus dose for 30 seconds and 0.3 mg/kg/hr, iv administered via infusion measured after 1 hr; type: functional
[21] = test system: Rattus norvegicus; test: Antinociceptive activity in anaesthetized rat assessed as maximal inhibition of noxious pinch-induced electromyograph response at 8 to 16 fold free Ki concentration in cerebrospinal fluid measured after 1 hr; type: functional, organism-based

Metabotropic glutamate receptor 1 (Rattus norvegicus, UniProt P23385), sequence (P23385 whole entry): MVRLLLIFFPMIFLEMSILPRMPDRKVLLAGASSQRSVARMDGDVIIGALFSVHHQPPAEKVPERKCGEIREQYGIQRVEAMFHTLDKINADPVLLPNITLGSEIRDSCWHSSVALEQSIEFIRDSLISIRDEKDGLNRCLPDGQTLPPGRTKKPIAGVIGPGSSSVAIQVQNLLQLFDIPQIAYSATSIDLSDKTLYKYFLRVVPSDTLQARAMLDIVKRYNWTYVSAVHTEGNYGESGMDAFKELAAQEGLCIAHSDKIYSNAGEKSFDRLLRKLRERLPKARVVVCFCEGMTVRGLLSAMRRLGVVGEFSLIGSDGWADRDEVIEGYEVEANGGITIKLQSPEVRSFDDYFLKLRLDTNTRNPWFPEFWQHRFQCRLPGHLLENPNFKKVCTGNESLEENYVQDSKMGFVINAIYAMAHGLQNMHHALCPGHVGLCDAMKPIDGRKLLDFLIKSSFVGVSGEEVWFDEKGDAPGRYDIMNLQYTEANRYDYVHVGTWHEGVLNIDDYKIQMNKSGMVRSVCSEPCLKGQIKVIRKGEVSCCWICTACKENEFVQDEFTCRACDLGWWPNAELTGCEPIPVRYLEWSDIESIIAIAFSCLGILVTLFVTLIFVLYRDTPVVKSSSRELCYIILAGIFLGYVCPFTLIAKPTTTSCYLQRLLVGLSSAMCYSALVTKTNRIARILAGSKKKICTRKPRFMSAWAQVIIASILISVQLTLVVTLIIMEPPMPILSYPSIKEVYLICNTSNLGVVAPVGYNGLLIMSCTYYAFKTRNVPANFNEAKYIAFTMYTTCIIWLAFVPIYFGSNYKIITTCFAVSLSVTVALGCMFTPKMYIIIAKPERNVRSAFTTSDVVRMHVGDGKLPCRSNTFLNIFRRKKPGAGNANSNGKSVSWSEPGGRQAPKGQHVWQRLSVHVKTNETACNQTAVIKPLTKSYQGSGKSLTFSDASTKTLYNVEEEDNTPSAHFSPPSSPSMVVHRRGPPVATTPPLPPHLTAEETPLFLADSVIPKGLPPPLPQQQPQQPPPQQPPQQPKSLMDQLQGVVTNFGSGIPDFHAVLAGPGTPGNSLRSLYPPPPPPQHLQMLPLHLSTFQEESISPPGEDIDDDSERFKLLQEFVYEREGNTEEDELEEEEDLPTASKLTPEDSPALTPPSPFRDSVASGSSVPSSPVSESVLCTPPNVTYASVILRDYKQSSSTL
Metabotropic glutamate receptor 1 (Homo sapiens, UniProt Q13255), sequence (Q13255 whole entry, the tested form may be a part): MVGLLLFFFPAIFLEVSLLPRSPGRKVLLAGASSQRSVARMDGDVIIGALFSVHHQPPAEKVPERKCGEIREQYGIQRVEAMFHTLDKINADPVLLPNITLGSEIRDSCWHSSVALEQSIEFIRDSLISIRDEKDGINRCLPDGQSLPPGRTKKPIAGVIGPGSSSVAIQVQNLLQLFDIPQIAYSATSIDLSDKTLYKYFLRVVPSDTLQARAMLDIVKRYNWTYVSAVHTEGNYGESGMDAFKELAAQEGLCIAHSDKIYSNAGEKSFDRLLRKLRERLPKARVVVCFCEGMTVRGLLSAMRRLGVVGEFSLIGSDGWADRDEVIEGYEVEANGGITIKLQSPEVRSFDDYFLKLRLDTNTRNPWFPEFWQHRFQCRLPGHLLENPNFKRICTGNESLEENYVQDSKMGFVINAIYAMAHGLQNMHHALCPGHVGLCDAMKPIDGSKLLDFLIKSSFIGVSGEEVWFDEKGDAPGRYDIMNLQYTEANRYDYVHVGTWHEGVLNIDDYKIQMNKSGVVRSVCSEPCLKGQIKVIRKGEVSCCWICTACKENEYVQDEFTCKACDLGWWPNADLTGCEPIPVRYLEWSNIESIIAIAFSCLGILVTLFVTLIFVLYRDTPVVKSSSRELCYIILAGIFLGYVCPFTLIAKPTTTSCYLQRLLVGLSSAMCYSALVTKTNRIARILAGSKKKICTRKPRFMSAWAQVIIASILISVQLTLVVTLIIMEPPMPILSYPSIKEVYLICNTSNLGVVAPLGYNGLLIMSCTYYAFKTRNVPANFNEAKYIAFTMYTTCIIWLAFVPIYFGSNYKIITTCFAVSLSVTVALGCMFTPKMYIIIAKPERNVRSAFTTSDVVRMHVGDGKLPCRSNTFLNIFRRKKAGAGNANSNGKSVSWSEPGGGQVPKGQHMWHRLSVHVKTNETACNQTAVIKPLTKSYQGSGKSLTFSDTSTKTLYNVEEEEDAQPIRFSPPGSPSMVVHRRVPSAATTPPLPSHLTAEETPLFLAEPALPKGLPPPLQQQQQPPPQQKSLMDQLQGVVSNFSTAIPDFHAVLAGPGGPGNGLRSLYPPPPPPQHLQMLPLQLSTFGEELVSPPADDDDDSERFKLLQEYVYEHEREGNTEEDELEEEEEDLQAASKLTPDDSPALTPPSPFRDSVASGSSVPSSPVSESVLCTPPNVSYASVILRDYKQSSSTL
Metabotropic glutamate receptor 5, sequence (P41594 whole entry): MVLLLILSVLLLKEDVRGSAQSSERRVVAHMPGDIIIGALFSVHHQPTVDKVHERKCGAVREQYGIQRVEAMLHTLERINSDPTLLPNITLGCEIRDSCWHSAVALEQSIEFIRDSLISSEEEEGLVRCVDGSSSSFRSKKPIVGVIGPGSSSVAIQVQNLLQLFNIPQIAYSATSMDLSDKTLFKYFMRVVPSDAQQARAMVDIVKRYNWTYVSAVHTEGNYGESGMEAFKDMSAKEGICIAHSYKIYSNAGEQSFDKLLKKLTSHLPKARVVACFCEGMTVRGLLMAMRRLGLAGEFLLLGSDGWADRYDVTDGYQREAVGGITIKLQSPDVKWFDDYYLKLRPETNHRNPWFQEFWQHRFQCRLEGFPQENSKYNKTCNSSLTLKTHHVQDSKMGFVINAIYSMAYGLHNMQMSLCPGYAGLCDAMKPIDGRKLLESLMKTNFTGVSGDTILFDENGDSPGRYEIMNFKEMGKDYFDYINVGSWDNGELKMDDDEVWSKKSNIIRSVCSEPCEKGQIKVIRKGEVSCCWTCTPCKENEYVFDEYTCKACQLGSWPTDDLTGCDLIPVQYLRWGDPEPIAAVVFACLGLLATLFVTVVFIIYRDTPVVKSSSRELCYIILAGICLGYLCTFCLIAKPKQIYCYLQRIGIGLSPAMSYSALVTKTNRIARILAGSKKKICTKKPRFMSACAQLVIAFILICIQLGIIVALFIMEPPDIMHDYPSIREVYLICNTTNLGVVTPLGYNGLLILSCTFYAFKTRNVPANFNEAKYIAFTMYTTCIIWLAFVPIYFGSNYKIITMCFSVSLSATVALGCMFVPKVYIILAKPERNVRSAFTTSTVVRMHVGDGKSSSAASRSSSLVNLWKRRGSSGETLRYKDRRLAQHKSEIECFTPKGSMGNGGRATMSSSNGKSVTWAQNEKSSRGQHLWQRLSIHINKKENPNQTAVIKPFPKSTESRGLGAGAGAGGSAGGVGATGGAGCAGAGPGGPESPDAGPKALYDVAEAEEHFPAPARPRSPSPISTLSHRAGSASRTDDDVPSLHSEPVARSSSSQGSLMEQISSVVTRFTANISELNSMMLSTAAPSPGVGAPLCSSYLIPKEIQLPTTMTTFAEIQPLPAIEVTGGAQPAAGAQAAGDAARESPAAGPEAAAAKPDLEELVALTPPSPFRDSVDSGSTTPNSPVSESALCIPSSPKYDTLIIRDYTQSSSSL

Structure (SMILES) | Ki [1] [nM] | further results
c1ccc2c(c1)CC(Nc1nccc3ccccc13)C2 | 1650 | –
OCCNc1cc2c(NC3Cc4ccccc4C3)ncnc2cn1 | 21 | –
c1nc(NC2CCCCC2)c2cc(OCCN3CCOCC3)ncc2n1 | 42 | –
OCCOCCNc1cc2c(NC3Cc4ccccc4C3)ncnc2cn1 | 3 | Kp uu [2]: 0.02; inhibition [3]: inactive; clearance [4]: 26 mL/min/kg; clearance [5]: < 7 µL/min/mg; IC50 [6]: > 3 µM; clearance [7]: 30 µL/min/mg; half-life [8]: 18 min; inhibition [9]: Active; solubility [10]: Insoluble; Cp [11]: > 1 µM; Activity [12]: Non-toxic; fraction unbound [13]: 0.19; IC50 [14]: 3 nM; inhibition [15]: Active; bioavailability [16]: 33%; logD [17]: 3; Vd [18]: 0.6 L/kg
Nc1cc2c(Nc3ccc(F)c(Cl)c3)ncnc2cn1 | – | IC50 [14]: 300 nM
OCCCOc1cc2c(NC3CCCCC3)ncnc2cn1 | 33 | –
C[C@H](Nc1ncnc2cnc(N(C)C)cc12)c1ccccc1 | 1400 | –
c1ccc2c(c1)CC(Nc1ncnc3ccccc13)C2 | 34 | –
O=C1CCCN1CCOc1cc2c(NC3CCCCC3)ncnc2cn1 | 20 | –
CN(C)c1cc2c(NC3Cc4ccccc4C3)ncnc2cn1 | 185 | –
CN1CC[C@]23c4c5ccc(O)c4O[C@H]2[C@@H](O)C=C[C@H]3[C@H]1C5 [MORPHINE] | – | Activity [19]: Active; inhibition in vivo at 0.3 mg/kg [20]: 40%
c1ccc2c(NC3CCCCC3)ncnc2c1 | 27 | –
c1ccc2c(NC3CCCCC3)ccnc2c1 | 6160 | –
NCCNc1cc2c(NC3CCCCC3)ncnc2cn1 | 2200 | –
c1nc(NC2CCCCCC2)c2cc(OCCN3CCOCC3)ncc2n1 | 6 | Kp uu [2]: 0.5; clearance [5]: 24 µL/min/mg; logD [17]: 3.4; inhibition [21]: Active
COCCOc1cc2c(NC3CCCCC3)ncnc2cn1 | 101 | –
CNc1cc2c(NC3Cc4ccccc4C3)ncnc2cn1 | 14 | Kp uu [2]: 0.06; logD [17]: 2.9

Structure (SMILES) | Ki [1] [nM] | further results
CN(C)c1cc2c(N(C)C3Cc4ccccc4C3)ncnc2cn1 | 300 | –
OCCNc1cc2c(NCCO)ncnc2cn1 | 6150 | –
OCCOc1cc2c(NC3CCCCC3)ncnc2cn1 | 177 | –
CN(C)CCNc1cc2c(NC3Cc4ccccc4C3)ncnc2cn1 | 102 | –
CNc1ncnc2cnc(NC3Cc4ccccc4C3)cc12 | 160 | –
c1ccc2c(c1)CC(Nc1cc3c(NC4Cc5ccccc5C4)ncnc3cn1)C2 | 31 | –
c1nc(NC2CCCCC2)c2cc(NCCN3CCOCC3)ncc2n1 | 10 | Kp uu [2]: 0.07; logD [17]: 2.8
c1ccc2c(OC3CCCCC3)ncnc2c1 | 694 | –
COCCNc1cc2c(NC3Cc4ccccc4C3)ncnc2cn1 | 5 | –
CCCC(C)Nc1ncnc2cnc(N(C)C)cc12 (centres undefined) | 858 | –
COCCNc1cc2c(NC3CCCCC3)ncnc2cn1 | 11 | –
CNc1cc2c(N(C)C3Cc4ccccc4C3)ncnc2cn1 | 54 | –
OCCNc1ncnc2cnc(NC3Cc4ccccc4C3)cc12 | 125 | –
CN(C)c1cc2c(NC3CCCCC3)ncnc2cn1 | 199 | –
COc1cc2c(NC3Cc4ccccc4C3)ncnc2cn1 | 115 | –
NCCCNc1cc2c(NC3CCCCC3)ncnc2cn1 | 200 | –
